Where a SMILES comes first, the peptide text is derived from it. Where no end group is shown, it is not given here. [ ]: non-standard residue; d: D form. Cit = NC(=O)NCCC[C@H](N)C(=O)O
Columns and labels:
HLA-DR4 (DRB1*04:01) = molecular target: T1, HLA-DR4 (DRB1*04:01) (Homo sapiens, UniProt P01903+P01911, A100K/A169T/F76Y/I96L/K127E/L162R/M171V/N62H/P40V/Q125Y/R42H/S133A/S149N/S66Y/V115G/V209L/W38E); test: Competitive peptide binding assay to soluble HLA-DR4; details: for IC50: competition with 0.5 nM biotinylated CII(257–274), 10 nM soluble DR4, 18 h at 37° C
T1 construct: a new stop codon was inserted immediately prior to the transmembrane domain; made in house; host or cells: Drosophila S2 cells, vector pRmHA-3, secreted, purified on an L227 antibody column
Text: (§1) Soluble DR1 and DR4 were purified from culture supernatants of S2 drosophila cells transfected with DRB1*0101 or DRB1*0401 and DRA1*0101 as described previously. The cytoplasmic and transmembrane portions of these molecules were deleted from the cDNA using PCR, a new stop codon was inserted immediately prior to the transmembrane domain, and the resulting cDNA was cloned into the drosophila expression vector pRmHA-3. S2 cells were transfected with a 10:10:1 ratio of DRB1:DRA1:pUChsNeo using calcium phosphate precipitation. Soluble DR production was induced by 1 mM CuSO4, and 5 days later the culture supernatant was collected and adjusted to 0.05% octyl glucoside (OcG). Soluble DR was purified by passage of the supernatant over an affinity column coupled with the anti-DR antibody L227. The column was washed with 0.05% OcG and 0.15 M NaCl in phosphate buffer (PB), pH 7.5, followed by 0.05% OcG and 0.5M NaCl in PB, pH 7.5. DR was eluted with 100 mM Tris, 0.5M NaCl, pH 11.2, and the fractions were immediately neutralized with acetic acid. Recovered DR protein was concentrated using an EMD Millipore stirred cell with a YM30 disc membrane (Beverly, MA) and quantitated by OD 280 nm absorption and SDS-PAGE prior to use.
(§2) For binding assays, a 10 nM solution of purified DR1 or DR4 was incubated for 18 h at 37° C with CII(257–274) peptide (0.5 nM) that had been labeled at the NH2 terminus with biotin as previously described. Various concentrations of peptides were added as competitors to the CII peptide binding. Bound peptides were separated from free peptides by immobilizing the DR molecules on microtiter plates coated with the monoclonal antibody L227 and subsequent washing. The antibody was adhered to the plate by an overnight incubation of a 10 μg/ml solution at 4° C. Bound biotinylated peptides were detected by incubation with streptavidin-europium followed by a chelating enhancement solution. Time resolved fluorescence was quantitated using a microplate fluorometer (FluoroMark, Bio-Rad, Hercules, CA), and data are expressed as relative fluorescence units measured. The 50% inhibitory concentration values (IC50) values were calculated from the binding curves and graphed as 1/IC50 to indicate affinity relative to the control peptide. Each binding assay was performed in duplicate, and data are representative of 3 experiments.
(§3) Fig 2 Measurement of peptide binding to DRB1*04:01. 10 nM of soluble DR4 was incubated for 18 h at 37° C with 0.5 nM of biotinylated CII(257–274) peptide and various concentrations of WT and Cit-peptides as competitors. Bound peptides were separated from free peptides by immobilizing the DR molecules with an antibody on microtiter plates. Bound biotinylated peptide was detected by incubation with streptavidin-europium. Time resolved fluorescence was quantitated and data are expressed as relative fluorescence units measured. Each binding assay was performed in duplicate, and data are representative of 3 experiments.

HLA-DR1 (DRB1*01:01) = molecular target: T2, HLA-DR1 (DRB1*01:01) (Homo sapiens, UniProt P01903+P01911, A100R/D57E/F55L/F60I/F76Y/I96L/L162R/M171V/P40L/Q125E/R42F/V115G/Y59C); test: Competitive peptide binding assay to soluble HLA-DR1; details: competition with 0.5 nM biotinylated CII(257–274), 10 nM soluble DR1, 18 h at 37° C, time resolved fluorescence; duplicate, representative of 3 experiments
T2 construct: a new stop codon was inserted immediately prior to the transmembrane domain; made in house; host or cells: Drosophila S2 cells, vector pRmHA-3, secreted, purified on an L227 antibody column
Text: as §1, §2
as §3, with “Fig 1” for “Fig 2”, “to DRB1*01:01.” for “to DRB1*04:01.”, “soluble DR1” for “soluble DR4”

[1] = tested on: lymph node T cells from B6.DR1 mice; test: Cytokine production by WT or Cit-peptide stimulated T cells (multiplexed bead assay); type: cell-based, mouse; parameters: key to Cytokine WT/Cit Ratio, TNFα: “–” values the result of no cytokine detected from the Cit-Ag or both antigens; details: T cells of mice immunized with the immunogen, calculated from Fig 5; for Cytokine WT/Cit Ratio, TNFα: WT over Cit stimulation, “>” = no TNFα produced by Cit-Ag stimulation; for Cytokine WT/Cit Ratio, IFNγ / Cytokine WT/Cit Ratio, IL-6 / Cytokine WT/Cit Ratio, IL-10 / Cytokine WT/Cit Ratio, IL-17A: WT-stimulated over Cit-stimulated, supernatant 3 days
Protocol: Cytokines produced by WT and Cit-peptide stimulated T cells were measured using a multiplexed bead assay (BioRad) and analyzed using a BioRad MagPix. B6.DR1 mice were immunized with WT or Cit-peptide, and 10 days later LN cells were recovered and re-stimulated with the corresponding WT peptide or Cit-peptide. Supernatants were collected 3 days after stimulation and assayed for expression of IFNγ, TNFα, IL-10, IL-17A, and IL-6. Standard curves were used to calculate cytokine concentration. Data are representative of two independent experiments and based on duplicate samples.
Fig 5 Cytokine production by T cells stimulated with WT or Cit-peptides. Supernatants from T cell proliferation assays in Fig 4 were collected 3 days after antigen stimulation and analyzed for the expression of proinflammatory cytokines. Cytokines produced were measured using a multiplexed bead assay and analyzed using a BioRad MagPix. Standard curves were used to calculate cytokine concentration. The cytokines produced by CII immunized T cells stimulated with the immunodominant epitope, CII(257–274), that drives autoimmune arthritis in the B6.DR1 model are shown for comparison (right panels). Data are representative of two independent experiments and based on duplicate samples.

[2] = tested on: B6.DR1 (HLA-DRB1*01:01 transgenic) mice; test: Induction of autoimmune arthritis in HLA-DR1 transgenic mice; type: in vivo, mouse
Protocol: Citrullinated CII (Cit-CII) was produced using the method described by Lundberg et al. and Burkhardt et al.. 4 ml of CII at 0.25 mg/ml was dialyzed against citrullination buffer (0.1 M Tris-HCl pH 7.6, 10 mM CaCl2, 5 mM DTT), and 6.7 μl (8.5 μg, 33.4 U) of PAD4 (human recombinant, Cayman Chemical) was used to induce citrullination. Sham Cit-CII was produced using the same procedure without the PAD4 enzyme.
For arthritis induction and T cell proliferation assays, 8 to 10 week old mice were immunized subcutaneously at the base of the tail with 100 μg of peptide or bovine CII emulsified in equal volumes of CFA consisting of 85% heavy paraffin oil (Fisher Scientific), 15% mannide mono-oleate (Sigma), and 4 mg/ml of heat killed mycobacterium (H37Ra, Difco). For arthritis studies, mice were examined 3 times per week starting at day 18 after immunization and the presence of arthritis, number of affected limbs, and the severity were assessed. Severity of disease was evaluated by visual inspection and assigned a score using a scale of 0 to 4 based on the degree of inflammation as described.
Fig 8 Induction of autoimmune arthritis in HLA-DR1 mice with WT CII and Cit-CII. B6.DR1 mice were immunized with native CII or Cit-CII and the incidence (panel A) and severity (panels B, C, and D) of arthritis were monitored. […]

CC(C)C[C@H](NC(=O)[C@H](CC(C)C)NC(=O)[C@@H](NC(=O)[C@@H](N)C(C)C)C(C)C)C(=O)N[C@H](C(=O)N[C@@H](C)C(=O)N[C@H](C(=O)N[C@@H](CCC(=O)O)C(=O)NCC(=O)N[C@@H](CCCNC(N)=O)C(=O)N[C@H](C(=O)N[C@@H](CCCNC(=N)N)C(=O)N[C@H](C(=O)N[C@@H](CC(N)=O)C(=O)N[C@@H](CO)C(=O)N[C@@H](C)C(=O)N[C@@H](Cc1ccc(O)cc1)C(=O)N[C@@H](CCC(N)=O)C(=O)N[C@@H](CC(=O)O)C(=O)N[C@@H](CCCCN)C(=O)O)C(C)C)C(C)C)[C@@H](C)O)C(C)C [cit-Agg] (H-VVLLVATEG[Cit]VRVNSAYQDK-OH)
IC50 (HLA-DR4 (DRB1*04:01)): > 5000 nM
IC50 (HLA-DR1 (DRB1*01:01)): 82.6 nM

CSCC[C@H](NC(=O)[C@H](Cc1ccc(O)cc1)NC(=O)[C@H](CCC(N)=O)NC(=O)[C@@H](N)CC(C)C)C(=O)N[C@@H](CCCNC(N)=O)C(=O)N[C@@H](C)C(=O)N[C@@H](CC(=O)O)C(=O)N[C@@H](CCC(N)=O)C(=O)N[C@@H](C)C(=O)N[C@@H](C)C(=O)NCC(=O)NCC(=O)N[C@@H](CC(C)C)C(=O)N[C@@H](CCCNC(=N)N)C(=O)O [cit-CII] (H-LQYM[Cit]ADQAAGGLR-OH)
IC50 (HLA-DR4 (DRB1*04:01)): 170 nM
IC50 (HLA-DR1 (DRB1*01:01)): 121 nM

CC[C@H](C)[C@H](NC(=O)[C@H](CCCNC(N)=O)NC(=O)[C@H](CC(N)=O)NC(=O)[C@@H](NC(=O)[C@H](Cc1ccccc1)NC(=O)[C@H](CC(=O)O)NC(=O)[C@H](CCC(N)=O)NC(=O)[C@@H](N)CC(N)=O)[C@@H](C)O)C(=O)N[C@@H](CC(N)=O)C(=O)N[C@@H](CCCCN)C(=O)N[C@@H](CC(C)C)C(=O)N[C@@H](CCCCN)C(=O)N[C@@H](CC(N)=O)C(=O)N[C@@H](CO)C(=O)O [cit-Fib] (H-NQDFTN[Cit]INKLKNS-OH; N-terminus and C-terminus assumed)
IC50 (HLA-DR1 (DRB1*01:01)): > 4500 nM
Cytokine WT/Cit Ratio, TNFα [1]: –
Cytokine WT/Cit Ratio, IFNγ [1]: 0.2
Cytokine WT/Cit Ratio, IL-6 [1]: 0.9
Cytokine WT/Cit Ratio, IL-10 [1]: 0.3
Cytokine WT/Cit Ratio, IL-17A [1]: 1.0

CC(C)C[C@H](NC(=O)[C@H](CCCNC(=N)N)NC(=O)[C@@H](NC(=O)[C@H](C)NC(=O)[C@@H](N)CO)C(C)C)C(=O)N[C@@H](CCCNC(N)=O)C(=O)N[C@@H](CO)C(=O)N[C@@H](CO)C(=O)N[C@H](C(=O)N1CCC[C@H]1C(=O)NCC(=O)N[C@H](C(=O)N[C@@H](CCCNC(=N)N)C(=O)O)C(C)C)C(C)C [cit-Vim] (H-SAVRL[Cit]SSVPGVR-OH)
IC50 (HLA-DR1 (DRB1*01:01)): 1.1 nM

LQYMRADQAAGGLR [CII]
IC50 (HLA-DR4 (DRB1*04:01)): 37.4 nM
IC50 (HLA-DR1 (DRB1*01:01)): 82.9 nM

NQDFTNRINKLKNS [Fib]
binding to DR4 (in words) (HLA-DR4 (DRB1*04:01); up to 40,000:1 nM ratio of competitor:indicator peptide): essentially undetectable
IC50 (HLA-DR1 (DRB1*01:01)): > 4500 nM
Cytokine WT/Cit Ratio, TNFα [1]: 1.3
Cytokine WT/Cit Ratio, IFNγ [1]: 2.5
Cytokine WT/Cit Ratio, IL-6 [1]: 1.1
Cytokine WT/Cit Ratio, IL-10 [1]: 1.0
Cytokine WT/Cit Ratio, IL-17A [1]: 1.4

SAVRLRSSVPGVR [Vim]
IC50 (HLA-DR1 (DRB1*01:01)): 76.1 nM

VVLLVATEGRVRVNSAYQDK [Agg]
IC50 (HLA-DR4 (DRB1*04:01)): > 5000 nM
IC50 (HLA-DR1 (DRB1*01:01)): 110 nM

citrullinated CII: native bovine type II collagen protein treated with PAD4 to convert Arg to Cit
induction of autoimmune arthritis ([2]; DR1 Tg mice immunized with 100 μg in CFA): induced autoimmune arthritis
severity of arthritis compared with WT CII ([2]; DR1 Tg mice, incidence, onset and severity score 0 to 4): no evidence that the disease was more severe than immunization with WT CII
